According to patent publication US7252936B2 (priority 1994, dated 2007):

How the values were obtained:
[1] = test system: M. tuberculosis strains with Aspartic acid 516 changed into Valine or Tyrosine; type: cell-based
M. tuberculosis = assay: microbe, parasite or virus in culture; type: cell-based; conditions: Mycobacterium tuberculosis, read-out: MIC (Minimal Inhibitory Concentration)

Structure (SMILES) | Resistance or sensitivity of strains with the mutation [1] | MIC (M. tuberculosis) [µg/mL]
CO[C@H]1/C=C/O[C@@]2(C)Oc3c(C)c(O)c4c(c3C2=O)C2=NC3(CCN(CC(C)C)CC3)NC2=C(NC(=O)/C(C)=C\C=C\[C@H](C)[C@H](O)[C@@H](C)[C@@H](O)[C@@H](C)[C@H](OC(C)=O)[C@@H]1C)C4=O [rifabutin] | sensitivity to rifabutin is maintained | 
CO[C@H]1/C=C/O[C@@]2(C)Oc3c(C)c(O)c4c(O)c(c(/C=N/N5CCN(C)CC5)c(O)c4c3C2=O)NC(=O)/C(C)=C\C=C\[C@H](C)[C@H](O)[C@@H](C)[C@@H](O)[C@@H](C)[C@H](OC(C)=O)[C@@H]1C [rifampicin] |  | > 2
